Measurements taken from ChEMBL document CHEMBL2346657, “Synthesis of novel 2-amino-4-(5'-substituted 2'-phenyl-1H-indol-3'-yl)-6-aryl-4H-pyran-3-carbonitrile derivatives as antimicrobial and antioxidant agents” (2013).
Active and inactive are the calls of the source. No rule for the calls is given here.

test system: Aspergillus niger; experiment: Antimicrobial activity against Aspergillus niger MTCC 281 at 500 ug/ml after 72 hrs by cup plate method; type: functional; conditions: MTCC 281, 72 h, read-out: IZ

Point of comparison: `Cc1ccc2[nH]c(-c3ccccc3)c(C3C=C(c4ccccc4)Oc4[nH]c(=O)nc(N)c43)c2c1` (stereo not given), zone of inhibition at 500 µg/mL 10 mm. Against it:
- O=c1[nH]cnc2c1C(c1c(-c3ccccc3)[nH]c3ccccc13)C=C(c1ccc(Cl)cc1)O2 (stereo not given) — lower, 8 mm

test system: not listed separately; experiment: Antioxidant activity assessed as metal chelating activity by measuring inhibition of ferrozine-Fe2+ complex formation at 25 to 100 ug/ml; type: functional; conditions: not given

In the case of `O=c1[nH]cnc2c1C(c1c(-c3ccccc3)[nH]c3ccccc13)C=C(c1ccc(Cl)cc1)O2` (stereo not given), the Activity was “Active”.
With `Cc1ccc2[nH]c(-c3ccccc3)c(C3C=C(c4ccccc4)Oc4[nH]c(=O)nc(N)c43)c2c1` (stereo not given) the Activity was “Active”.

test system: Escherichia coli; experiment: Antimicrobial activity against Escherichia coli MTCC 723 at 750 ug/ml after 24 hrs by cup plate method; type: functional; conditions: MTCC 723, 24 h, read-out: IZ

Point of comparison: `Cc1ccc2[nH]c(-c3ccccc3)c(C3C=C(c4ccccc4)Oc4[nH]c(=O)nc(N)c43)c2c1` (stereo not given), zone of inhibition at 750 µg/mL 8 mm. Against it:
- O=c1[nH]cnc2c1C(c1c(-c3ccccc3)[nH]c3ccccc13)C=C(c1ccc(Cl)cc1)O2 (stereo not given) — higher, 9 mm

test system: Aspergillus flavus; experiment: Antimicrobial activity against Aspergillus flavus MTCC 1973 at 1000 ug/ml after 72 hrs by cup plate method; type: functional; conditions: MTCC 1973, 72 h, read-out: IZ

Point of comparison: `Cc1ccc2[nH]c(-c3ccccc3)c(C3C=C(c4ccccc4)Oc4[nH]c(=O)nc(N)c43)c2c1` (stereo not given), zone of inhibition at 1000 µg/mL 7 mm. Against it:
- O=c1[nH]cnc2c1C(c1c(-c3ccccc3)[nH]c3ccccc13)C=C(c1ccc(Cl)cc1)O2 (stereo not given) — higher, 8 mm

test system: Aspergillus terreus; experiment: Antimicrobial activity against Aspergillus terreus MTCC 1782 at 750 ug/ml after 72 hrs by cup plate method; type: functional; conditions: MTCC 1782, 72 h, read-out: IZ

Point of comparison: `Cc1ccc2[nH]c(-c3ccccc3)c(C3C=C(c4ccccc4)Oc4[nH]c(=O)nc(N)c43)c2c1` (stereo not given), zone of inhibition at 750 µg/mL 8 mm. Against it:
- O=c1[nH]cnc2c1C(c1c(-c3ccccc3)[nH]c3ccccc13)C=C(c1ccc(Cl)cc1)O2 (stereo not given) — lower, 6 mm

test system: Klebsiella pneumoniae; experiment: Antimicrobial activity against Klebsiella pneumoniae NCTC 13368 at 750 ug/ml after 24 hrs by cup plate method; type: functional; conditions: NCTC 13368, 24 h, read-out: IZ

Point of comparison: `Cc1ccc2[nH]c(-c3ccccc3)c(C3C=C(c4ccccc4)Oc4[nH]c(=O)nc(N)c43)c2c1` (stereo not given), zone of inhibition at 750 µg/mL 5 mm. Against it:
- O=c1[nH]cnc2c1C(c1c(-c3ccccc3)[nH]c3ccccc13)C=C(c1ccc(Cl)cc1)O2 (stereo not given) — higher, 9 mm

test system: Aspergillus niger; experiment: Antimicrobial activity against Aspergillus niger MTCC 281 at 1000 ug/ml after 72 hrs by cup plate method; type: functional; conditions: MTCC 281, 72 h, read-out: IZ

Point of comparison: `O=c1[nH]cnc2c1C(c1c(-c3ccccc3)[nH]c3ccccc13)C=C(c1ccc(Cl)cc1)O2` (stereo not given), zone of inhibition at 1000 µg/mL 8 mm. Against it:
- Cc1ccc2[nH]c(-c3ccccc3)c(C3C=C(c4ccccc4)Oc4[nH]c(=O)nc(N)c43)c2c1 (stereo not given) — higher, 10 mm

test system: Staphylococcus aureus; experiment: Antimicrobial activity against Staphylococcus aureus ATCC 29513 at 750 ug/ml after 24 hrs by cup plate method; type: functional; conditions: ATCC 29513, 24 h, read-out: IZ

Point of comparison: `O=c1[nH]cnc2c1C(c1c(-c3ccccc3)[nH]c3ccccc13)C=C(c1ccc(Cl)cc1)O2` (stereo not given), zone of inhibition at 750 µg/mL 5 mm. Against it:
- Cc1ccc2[nH]c(-c3ccccc3)c(C3C=C(c4ccccc4)Oc4[nH]c(=O)nc(N)c43)c2c1 (stereo not given) — higher, 11 mm

test system: Aspergillus niger; experiment: Antimicrobial activity against Aspergillus niger MTCC 281 at 750 ug/ml after 72 hrs by cup plate method; type: functional; conditions: MTCC 281, 72 h, read-out: IZ

Point of comparison: `Cc1ccc2[nH]c(-c3ccccc3)c(C3C=C(c4ccccc4)Oc4[nH]c(=O)nc(N)c43)c2c1` (stereo not given), zone of inhibition at 750 µg/mL 9 mm. Against it:
- O=c1[nH]cnc2c1C(c1c(-c3ccccc3)[nH]c3ccccc13)C=C(c1ccc(Cl)cc1)O2 (stereo not given) — lower, 8 mm

test system: Pseudomonas aeruginosa; experiment: Antimicrobial activity against Pseudomonas aeruginosa MTCC 1688 at 750 ug/ml after 24 hrs by cup plate method; type: functional; conditions: MTCC 1688, 24 h, read-out: IZ

Point of comparison: `O=c1[nH]cnc2c1C(c1c(-c3ccccc3)[nH]c3ccccc13)C=C(c1ccc(Cl)cc1)O2` (stereo not given), zone of inhibition at 750 µg/mL 10 mm. Against it:
- Cc1ccc2[nH]c(-c3ccccc3)c(C3C=C(c4ccccc4)Oc4[nH]c(=O)nc(N)c43)c2c1 (stereo not given) — the same, 10 mm

test system: Aspergillus oryzae; experiment: Antimicrobial activity against Aspergillus oryzae MTCC 3567 at 750 ug/ml after 72 hrs by cup plate method; type: functional; conditions: MTCC 3567, 72 h, read-out: IZ

Point of comparison: `O=c1[nH]cnc2c1C(c1c(-c3ccccc3)[nH]c3ccccc13)C=C(c1ccc(Cl)cc1)O2` (stereo not given), zone of inhibition at 750 µg/mL 10 mm. Against it:
- Cc1ccc2[nH]c(-c3ccccc3)c(C3C=C(c4ccccc4)Oc4[nH]c(=O)nc(N)c43)c2c1 (stereo not given) — lower, 8 mm

test system: Escherichia coli; experiment: Antimicrobial activity against Escherichia coli MTCC 723 at 500 ug/ml after 24 hrs by cup plate method; type: functional; conditions: MTCC 723, 24 h, read-out: IZ

Point of comparison: `O=c1[nH]cnc2c1C(c1c(-c3ccccc3)[nH]c3ccccc13)C=C(c1ccc(Cl)cc1)O2` (stereo not given), zone of inhibition at 500 µg/mL 9 mm. Against it:
- Cc1ccc2[nH]c(-c3ccccc3)c(C3C=C(c4ccccc4)Oc4[nH]c(=O)nc(N)c43)c2c1 (stereo not given) — lower, 8 mm

test system: Escherichia coli; experiment: Antimicrobial activity against Escherichia coli MTCC 723 at 1000 ug/ml after 24 hrs by cup plate method; type: functional; conditions: MTCC 723, 24 h, read-out: IZ

Point of comparison: `O=c1[nH]cnc2c1C(c1c(-c3ccccc3)[nH]c3ccccc13)C=C(c1ccc(Cl)cc1)O2` (stereo not given), zone of inhibition at 1000 µg/mL 9 mm. Against it:
- Cc1ccc2[nH]c(-c3ccccc3)c(C3C=C(c4ccccc4)Oc4[nH]c(=O)nc(N)c43)c2c1 (stereo not given) — lower, 8 mm

test system: Staphylococcus aureus; experiment: Antimicrobial activity against Staphylococcus aureus ATCC 29513 at 1000 ug/ml after 24 hrs by cup plate method; type: functional; conditions: ATCC 29513, 24 h, read-out: IZ

Point of comparison: `Cc1ccc2[nH]c(-c3ccccc3)c(C3C=C(c4ccccc4)Oc4[nH]c(=O)nc(N)c43)c2c1` (stereo not given), zone of inhibition at 1000 µg/mL 11 mm. Against it:
- O=c1[nH]cnc2c1C(c1c(-c3ccccc3)[nH]c3ccccc13)C=C(c1ccc(Cl)cc1)O2 (stereo not given) — lower, 5 mm

test system: Aspergillus terreus; experiment: Antimicrobial activity against Aspergillus terreus MTCC 1782 at 1000 ug/ml after 72 hrs by cup plate method; type: functional; conditions: MTCC 1782, 72 h, read-out: IZ

Point of comparison: `O=c1[nH]cnc2c1C(c1c(-c3ccccc3)[nH]c3ccccc13)C=C(c1ccc(Cl)cc1)O2` (stereo not given), zone of inhibition at 1000 µg/mL 5 mm. Against it:
- Cc1ccc2[nH]c(-c3ccccc3)c(C3C=C(c4ccccc4)Oc4[nH]c(=O)nc(N)c43)c2c1 (stereo not given) — higher, 9 mm

test system: Klebsiella pneumoniae; experiment: Antimicrobial activity against Klebsiella pneumoniae NCTC 13368 at 1000 ug/ml after 24 hrs by cup plate method; type: functional; conditions: NCTC 13368, 24 h, read-out: IZ

Point of comparison: `O=c1[nH]cnc2c1C(c1c(-c3ccccc3)[nH]c3ccccc13)C=C(c1ccc(Cl)cc1)O2` (stereo not given), zone of inhibition at 1000 µg/mL 10 mm. Against it:
- Cc1ccc2[nH]c(-c3ccccc3)c(C3C=C(c4ccccc4)Oc4[nH]c(=O)nc(N)c43)c2c1 (stereo not given) — lower, 5 mm

test system: Aspergillus flavus; experiment: Antimicrobial activity against Aspergillus flavus MTCC 1973 at 750 ug/ml after 72 hrs by cup plate method; type: functional; conditions: MTCC 1973, 72 h, read-out: IZ

Point of comparison: `O=c1[nH]cnc2c1C(c1c(-c3ccccc3)[nH]c3ccccc13)C=C(c1ccc(Cl)cc1)O2` (stereo not given), zone of inhibition at 750 µg/mL 9 mm. Against it:
- Cc1ccc2[nH]c(-c3ccccc3)c(C3C=C(c4ccccc4)Oc4[nH]c(=O)nc(N)c43)c2c1 (stereo not given) — lower, 8 mm

test system: Aspergillus terreus; experiment: Antimicrobial activity against Aspergillus terreus MTCC 1782 at 500 ug/ml after 72 hrs by cup plate method; type: functional; conditions: MTCC 1782, 72 h, read-out: IZ

Point of comparison: `Cc1ccc2[nH]c(-c3ccccc3)c(C3C=C(c4ccccc4)Oc4[nH]c(=O)nc(N)c43)c2c1` (stereo not given), zone of inhibition at 500 µg/mL 8 mm. Against it:
- O=c1[nH]cnc2c1C(c1c(-c3ccccc3)[nH]c3ccccc13)C=C(c1ccc(Cl)cc1)O2 (stereo not given) — lower, 6 mm

test system: Aspergillus oryzae; experiment: Antimicrobial activity against Aspergillus oryzae MTCC 3567 at 500 ug/ml after 72 hrs by cup plate method; type: functional; conditions: MTCC 3567, 72 h, read-out: IZ

Point of comparison: `O=c1[nH]cnc2c1C(c1c(-c3ccccc3)[nH]c3ccccc13)C=C(c1ccc(Cl)cc1)O2` (stereo not given), zone of inhibition at 500 µg/mL 10 mm. Against it:
- Cc1ccc2[nH]c(-c3ccccc3)c(C3C=C(c4ccccc4)Oc4[nH]c(=O)nc(N)c43)c2c1 (stereo not given) — lower, 9 mm

test system: Aspergillus flavus; experiment: Antimicrobial activity against Aspergillus flavus MTCC 1973 at 500 ug/ml after 72 hrs by cup plate method; type: functional; conditions: MTCC 1973, 72 h, read-out: IZ

Point of comparison: `O=c1[nH]cnc2c1C(c1c(-c3ccccc3)[nH]c3ccccc13)C=C(c1ccc(Cl)cc1)O2` (stereo not given), zone of inhibition at 500 µg/mL 10 mm. Against it:
- Cc1ccc2[nH]c(-c3ccccc3)c(C3C=C(c4ccccc4)Oc4[nH]c(=O)nc(N)c43)c2c1 (stereo not given) — lower, 8 mm

test system: Pseudomonas aeruginosa; experiment: Antimicrobial activity against Pseudomonas aeruginosa MTCC 1688 at 1000 ug/ml after 24 hrs by cup plate method; type: functional; conditions: MTCC 1688, 24 h, read-out: IZ

Point of comparison: `O=c1[nH]cnc2c1C(c1c(-c3ccccc3)[nH]c3ccccc13)C=C(c1ccc(Cl)cc1)O2` (stereo not given), zone of inhibition at 1000 µg/mL 10 mm. Against it:
- Cc1ccc2[nH]c(-c3ccccc3)c(C3C=C(c4ccccc4)Oc4[nH]c(=O)nc(N)c43)c2c1 (stereo not given) — the same, 10 mm

test system: Klebsiella pneumoniae; experiment: Antimicrobial activity against Klebsiella pneumoniae NCTC 13368 at 500 ug/ml after 24 hrs by cup plate method; type: functional; conditions: NCTC 13368, 24 h, read-out: IZ

Point of comparison: `O=c1[nH]cnc2c1C(c1c(-c3ccccc3)[nH]c3ccccc13)C=C(c1ccc(Cl)cc1)O2` (stereo not given), zone of inhibition at 500 µg/mL 9 mm. Against it:
- Cc1ccc2[nH]c(-c3ccccc3)c(C3C=C(c4ccccc4)Oc4[nH]c(=O)nc(N)c43)c2c1 (stereo not given) — lower, 6 mm

test system: Pseudomonas aeruginosa; experiment: Antimicrobial activity against Pseudomonas aeruginosa MTCC 1688 at 500 ug/ml after 24 hrs by cup plate method; type: functional; conditions: MTCC 1688, 24 h, read-out: IZ

Point of comparison: `O=c1[nH]cnc2c1C(c1c(-c3ccccc3)[nH]c3ccccc13)C=C(c1ccc(Cl)cc1)O2` (stereo not given), zone of inhibition at 500 µg/mL 10 mm. Against it:
- Cc1ccc2[nH]c(-c3ccccc3)c(C3C=C(c4ccccc4)Oc4[nH]c(=O)nc(N)c43)c2c1 (stereo not given) — the same, 10 mm

test system: Staphylococcus aureus; experiment: Antimicrobial activity against Staphylococcus aureus ATCC 29513 at 500 ug/ml after 24 hrs by cup plate method; type: functional; conditions: ATCC 29513, 24 h, read-out: IZ

Point of comparison: `Cc1ccc2[nH]c(-c3ccccc3)c(C3C=C(c4ccccc4)Oc4[nH]c(=O)nc(N)c43)c2c1` (stereo not given), zone of inhibition at 500 µg/mL 11 mm. Against it:
- O=c1[nH]cnc2c1C(c1c(-c3ccccc3)[nH]c3ccccc13)C=C(c1ccc(Cl)cc1)O2 (stereo not given) — lower, 5 mm

test system: Aspergillus oryzae; experiment: Antimicrobial activity against Aspergillus oryzae MTCC 3567 at 1000 ug/ml after 72 hrs by cup plate method; type: functional; conditions: MTCC 3567, 72 h, read-out: IZ

Point of comparison: `O=c1[nH]cnc2c1C(c1c(-c3ccccc3)[nH]c3ccccc13)C=C(c1ccc(Cl)cc1)O2` (stereo not given), zone of inhibition at 1000 µg/mL 10 mm. Against it:
- Cc1ccc2[nH]c(-c3ccccc3)c(C3C=C(c4ccccc4)Oc4[nH]c(=O)nc(N)c43)c2c1 (stereo not given) — lower, 5 mm
